Source: US20240207159A1, “SKIN PENETRATION IMPROVER” (KANEKA CORPORATION, priority 2021, published 2024)
Values belong to the molecule of their own block, whether it stands above or below them.

Tests used:
Format in all cases: in vitro ADME, human
[1] = Transdermal absorption test using cosmetics component (Franz diffusion cell, tape stripping, HPLC); conditions: for Penetration amount into epidermis/dermis (%) / Penetration amount into stratum corneum (%) / Wiping + first layer (%): 2 mg/cm^2, 6 hours; for Penetration amount into epidermis/dermis (%) / Penetration amount into stratum corneum (%) / Wiping + first layer (%) / Passing amount (%): ratio to 100 as total retrieved amount; for Passing amount (%): receptor liquid, 6 hours; for skin penetration property into the skin: combination of surfactin and a phospholipid in comparison with the aqueous solution
Description: The skin penetration properties of niacinamide and arbutin, which are often mixed in cosmetics as active ingredients, were evaluated by a similar test to Example 1. A circle human skin sample having a thickness of about 700 μm was attached to a test cell of an In vitro transdermal penetration test device (“TransView C12” manufactured by CosMED). The test cell is an open system Franz diffusion cell having an effective diameter of 2.0 cm, an area of 3.14 cm- and a receptor liquid volume of 2.4 mL. An electrical resistance value was measured to confirm that there were not any problems with the sample. Then, the test cell was filled with a phosphate buffer solution of pH 7.0 as a receptor liquid. The phosphate buffer solution of pH 7.0 containing 2 mass % surfactin sodium salt (SF), 1 mass % natural lecithin and 5 mass % active ingredient was applied to the skin sample at a rate of 2 mg/cm^2, and the skin sample was installed at the test device of which temperature was maintained at 32° C. to start the test. A phosphate buffer solution containing 5 mass % active ingredient was concurrently subjected to the test as control.
(§1) The skin sample was taken out of the test cell 6 hours after the start of the test, and the surface was wiped using cotton. Then, the first round of tape stripping, hereinafter referred to as “TS”, was conducted using a dedicated tape, hereinafter referred to as “tape”. Specifically, the tape was attached to the skin sample and then peeled. A mixed solvent (15 mL) of ethanol:water=1:1 by v/v was added thereto, and ultrasonic wave was applied to the mixture for 1 hour for extraction. The obtained liquid was retrieved, and the above-described mixed solvent was added thereto to adjust the total amount to 20 mL as an analytic sample of “wiping+first layer”.
(§2) Then, the second or later round of TS were conducted. The number of the total times of TS was 15 at a maximum, and the number of times was adjusted depending on the condition of the skin sample surface. The tapes of second or later round were combined, and the extraction using aqueous ethanol and the total amount adjustment were conducted in a similar condition to the above to prepare an analytic sample of “penetration amount into stratum corneum”.
(§3) In addition, the remaining skin sample was finely cut and divided into two tubes for crushing. Water (0.5 mL) was added into each tube, and the skin was crushed using a crushing machine for 20 minutes. The liquid containing the crushed skin was retrieved from two tubes into one centrifuge test. Then, ethanol (12 mL) was added thereto, and the mixture was efficiently stirred and centrifuged to obtain a supernatant. Water was added to the obtained supernatant to adjust the total amount to 20 mL to prepare an analytic sample of “penetration amount into epidermis/dermis”.
(§4) The receptor liquid was also retrieved, and water was added thereto to adjust the total amount to 20 mL to prepare an analytic sample of “passing amount”. The amounts of each active ingredient in each obtained solution were measured by HPLC.
The amounts of the active ingredients retrieved from each sample of the above-described “wiping+first layer”, “penetration amount into stratum corneum”, “penetration amount into epidermis/dermis” are shown in Table 1 as ratios to 100 as the total amount retrieved from 4 samples.

[2] = Transdermal absorption test of water-soluble fluorescent dye (Franz diffusion cell, fluorescence microscopy of frozen section); conditions: 6 hours
Description: A circle human skin sample having a thickness of about 700 μm was attached to a test cell of an In vitro transdermal penetration test device (“TransView C12” manufactured by CosMED). The test cell was an open system Franz diffusion cell having an effective diameter of 1.7 cm, an area of 2.27 cm^2 and a receptor liquid volume of 5.75 mL. An electrical resistance value was measured to confirm that there was not any problems with the sample. Then, the test cell was filled with a phosphate buffer solution of pH 7.0 as a receptor liquid. The phosphate buffer solution of pH 7.01 (500 μL) containing 1.5 mass % surfactin sodium salt (SF), 1 mass % phospholipid (DMPC: 1,2-dimyristoyl-sn-glycero-3-phosphocholine) and 10 mM water-soluble fluorescent dye (calcein) was applied to the skin sample, and the skin sample was installed at the test device of which temperature was maintained at 32° ° C. to start the test.
In addition, similar tests were conducted for comparison using a PBS solution of pH 7.09 containing 10 mM water-soluble fluorescent dye, a PBS solution of pH 6.99 containing 10 mM water-soluble fluorescent dye+1.5 mass % SF, and a PBS solution of pH 7.08 containing 10 mM water-soluble fluorescent dye+1 mass % phospholipid.
The skin sample was cut 6 hours after the start of the test, embedded in O. C. T. Compound, cooled using cooled acetone to be frozen, and sliced to prepare a frozen section. The cut surface was observed using a fluorescence microscope. Separately, the used human skin sample was dyed using hematoxylin-eosin and observed under magnification.
The result of the human skin sample is shown in FIG. 1, the result of the 10 mM water-soluble fluorescent dye PBS solution is shown in FIG. 2A, the result of the 10 mM water-soluble fluorescent dye+1.5 mass % SF PBS solution is shown in FIG. 2B, the result of the 10 mM water-soluble fluorescent dye+1 mass % phospholipid PBS solution is shown in FIG. 2C, and the result of the 10 mM water-soluble fluorescent dye+1 mass % phospholipid+1.5 mass % SF PBS solution is shown in FIG. 2D.

[3] = Effect of concentrations of phospholipid and surfactin on penetration of active ingredient (transdermal absorption test); conditions: 5 mass % niacinamide
Description: A circle human skin sample having a thickness of about 700 μm was attached to a test cell of an In vitro transdermal penetration test device (“TransView C12” manufactured by CosMED). The test cell is an open system Franz diffusion cell having an effective diameter of 2.0 cm, an area of 3.14 cm- and a receptor liquid volume of 2.4 mL. An electrical resistance value was measured to confirm that there were not any problems with the sample. Then, the test cell was filled with a phosphate buffer solution of pH 7.0 as a receptor liquid. The phosphate buffer solution of pH 7.0 containing 2 mass % surfactin sodium salt (SF), 1 mass % natural lecithin and 5 mass % active ingredient was applied to the skin sample at a rate of 2 mg/cm^2, and the skin sample was installed at the test device of which temperature was maintained at 32° C. to start the test.
as §1, §2, §3, §4
The condition of Example 2 was used as a benchmark of the concentrations of a phospholipid and surfactin in the samples applied to the skin, and the concentration, the ½ concentration thereof and the 1/10 concentration thereof were tested. All of the concentrations of niacinamide in the samples were adjusted to 5 mass %. The ratio of the active ingredient amounts in each sample to 100 of the total retrieved amount are shown.

[4] = Control: phosphate buffer solution containing 5 mass % active ingredient, 32 °C
[5] = Control: phosphate buffer solution containing 5 mass % active ingredient
[6] = Example: 2 mass % SF + 1 mass % natural lecithin + 5 mass % active ingredient, phosphate buffer pH 7.0
[7] = Example: 2 mass % surfactin sodium salt (SF) + 1 mass % natural lecithin + 5 mass % active ingredient, phosphate buffer pH 7.0
[8] = 1/10 conc. of phospholipid and surfactin of Example 2
[9] = Control, ratio to 100 of total retrieved amount
[10] = Example: phospholipid and surfactin at the concentration of Example 2
[11] = ½ conc. of phospholipid and surfactin of Example 2

Penetration amount into epidermis/dermis (%) [1, 4]: 0%
Penetration amount into stratum corneum (%) [1, 4]: 5%
Wiping + first layer (%) [1, 4]: 95%
Passing amount (%) [1, 5]: 0%
Penetration amount into epidermis/dermis (%) [1, 6]: 23%
Penetration amount into stratum corneum (%) [1, 6]: 25%
Passing amount (%) [1, 6]: 0%
Wiping + first layer (%) [1, 7]: 52%
skin penetration property into the skin [1]: remarkably improved
SMILES: OC[C@H]1O[C@@H](Oc2ccc(O)cc2)[C@H](O)[C@@H](O)[C@@H]1O [Arbutin, arbutin]

SMILES: O=C(O)CN(CC(=O)O)Cc1cc2c(cc1O)Oc1cc(O)c(CN(CC(=O)O)CC(=O)O)cc1C21OC(=O)c2ccccc21 [water-soluble fluorescent dye, calcein]
skin penetration of the water-soluble fluorescent dye (fluorescence microscope, cut surface) ([2]; PBS solution pH 6.99, 10 mM dye + 1.5 mass % SF (surfactin sodium salt), FIG. 2B): reached deeper epidermal tissue than the stratum corneum but mainly remained in the stratum corneum
skin penetration of the water-soluble fluorescent dye (fluorescence microscope, cut surface) ([2]; PBS solution pH 7.08, 10 mM dye + 1 mass % phospholipid (DMPC), FIG. 2C): reached deeper epidermal tissue than the stratum corneum but mainly remained in the stratum corneum
skin penetration of the water-soluble fluorescent dye (fluorescence microscope, cut surface) ([2]; PBS solution pH 7.09, 10 mM dye only, 32 °C, FIG. 2A): remained on the surface and could not infiltrate the deeper area than the stratum corneum
skin penetration of the water-soluble fluorescent dye (fluorescence microscope, cut surface) ([2]; phosphate buffer pH 7.01, 10 mM dye + 1 mass % phospholipid (DMPC) + 1.5 mass % SF, FIG. 2D): clearly infiltrated the epidermal tissue and also reached the dermis

Penetration amount into epidermis/dermis (%) [1, 4]: 5%
Penetration amount into stratum corneum (%) [1, 4]: 7%
Wiping + first layer (%) [1, 4]: 89%
Passing amount (%) [1, 5]: 0%
Penetration amount into epidermis/dermis (%) [1, 6]: 37%
Penetration amount into stratum corneum (%) [1, 6]: 39%
Passing amount (%) [1, 6]: 0%
Wiping + first layer (%) [1, 7]: 24%
skin penetration property into the skin [1]: remarkably improved
Passing amount (%) [3, 8]: 15%
Penetration amount into epidermis/dermis (%) [3, 8]: 18%
Penetration amount into stratum corneum (%) [3, 8]: 26%
Wiping + first layer (%) [3, 8]: 41%
Passing amount (%) [3, 9]: 15%
Penetration amount into epidermis/dermis (%) [3, 9]: 8%
Penetration amount into stratum corneum (%) [3, 9]: 11%
Wiping + first layer (%) [3, 9]: 65%
Passing amount (%) [3, 10]: 39%
Penetration amount into epidermis/dermis (%) [3, 10]: 18%
Penetration amount into stratum corneum (%) [3, 10]: 23%
Wiping + first layer (%) [3, 10]: 19%
Passing amount (%) [3, 11]: 15%
Penetration amount into epidermis/dermis (%) [3, 11]: 18%
Penetration amount into stratum corneum (%) [3, 11]: 23%
Wiping + first layer (%) [3, 11]: 44%
SMILES: NC(=O)c1cccnc1 [Niacinamide, niacinamide]
